In one series the test system is H9. In words: Cytotoxicity against mock-infected human H9 cells after 4 days. To be noted: h9, 96 h. It counts as cell-based.
A short description of series [1]: Therapeutic index, ratio of IC50 for mock-infected human H9 cells to EC50 for HIV1 3B. It counts as cell-based. As to conditions: for Activity: h9; for selectivity ratio: read-out: TI; call rule not given here.

As for `C/C=C(/C)C(=O)O[C@H]1c2cc3c(c(OC)c2-c2c(cc4c(c2OC)OCO4)C[C@H](C)[C@]1(C)O)OCO3` [INTERIOTHERIN B], the Activity entry with H9 was “Not Active”; in series [1] it was “Active”.

Regarding `Cc1cn([C@H]2C[C@H](N=[N+]=[N-])[C@@H](CO)O2)c(=O)[nH]c1=O` [ZIDOVUDINE], the selectivity ratio in series [1] is 250000. As for `C/C=C(/C)C(=O)O[C@H]1c2cc3c(c(OC)c2-c2c(cc4c(c2OC)OCO4)C[C@H](C)[C@@H]1C)OCO3` [ANGELOYLGOMISIN R], the Activity result in the series on H9 was “Not Active”; in series [1], “Active”. Regarding `COc1c2c(cc3c1-c1c(cc4c(c1OC)OCO4)[C@H](OC(=O)c1ccccc1)[C@@](C)(O)[C@@H](C)C3)OCO2` [SCHISANTHERIN D], the selectivity ratio in series [1] stood at 50.6. For `COc1c2c(cc3c1-c1c(cc4c(c1OC)OCO4)[C@H](OC(=O)c1ccccc1)[C@@H](C)[C@@H](C)C3)OCO2` [INTERIOTHERIN A], the selectivity ratio in series [1] stood at 13.2.

(Values after ChEMBL document CHEMBL1158229, “Two new lignans, interiotherins A and B, as anti-HIV principles from Kadsura interior” (J Nat Prod, 1996).)
